Patent publication US6355799B1, “Substituted benzene compounds, process for their preparation, and herbicidal and defoliant compositions containing them” (ISK Americas Incorporated, priority 1997, dated 2002)

Assays:
Assay type in all cases: in vivo
[1] = test system: upland rice (Oryza sp., var. Tebonnet, RICE); test: Post-emerge test, crop safety; conditions: post-emerge, 14 days after application, rating scale 0-100
Method in brief: (§1)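 Fourteen days after spraying, crop and weed injury was graded visually from 0, no effect, to 100, every plant dead. Test substances were dissolved in acetone and applied at 15–1000 g ai/ha with a flat-fan nozzle. Application was either pre-emergence, one day after sowing, or post-emergence at the 2–3 leaf stage.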

[2] = test system: field corn (Zea mays L., var. Dekalb 535, CORN); test: Post-emerge test, crop safety; conditions: post-emerge, 14 days after application, rating scale 0-100
Method in brief: as §1

[3] = test system: ivyleaf morningglory (Ipomoea hederacea, IPOHE); test: Post-emerge test, greenhouse herbicide activity screening; conditions: post-emerge, 14 days after application, rating scale 0-100
Method in brief: (§2)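 Visual ratings on a 0-100 scale (0 no damage, 100 all plants dead) were taken at 14 days after treatment. Rates of 15-1000 g ai/ha in acetone, 187 l/ha, were sprayed onto soil one day after planting (pre-emerge) or onto 2-3 leaf plants with 0.25% v/v surfactant (post-emerge).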

[4] = test system: sicklepod (Cassia obtusifolia, CASOB); test: as above; conditions: post-emerge, 14 days after application, rating scale 0-100
Method in brief: as §2

[5] = test system: redroot pigweed (Amaranthus retroflexus, AMARE); test: as above; conditions: post-emerge, 14 days after application, rating scale 0-100
Method in brief: as §2

[6] = test system: large crabgrass (Digitaria sanguinalis, DIGSA); test: as above; conditions: post-emerge, 14 days after application, rating scale 0-100
Method in brief: as §2

[7] = test system: barnyardgrass (Echinochloa crus-galli, ECHCG); test: as above; conditions: post-emerge, 14 days after application, rating scale 0-100
Method in brief: as §2

[8] = test system: green foxtail (Setaria viridis, SETVI); test: as above; conditions: post-emerge, 14 days after application, rating scale 0-100
Method in brief: as §2

[9] = test system: johnsongrass (Sorghum halepense, SORHA); test: as above; conditions: post-emerge, 14 days after application, rating scale 0-100
Method in brief: as §2

[10] = test system: velvetleaf (Abutilon theophrasti, ABUTH); test: as above; conditions: post-emerge, 14 days after application, rating scale 0-100
Method in brief: as §2

[11] = test system: lambsquarters (Chenopodium album, CHEAL); test: as above; conditions: post-emerge, 14 days after application, rating scale 0-100
Method in brief: as §2

[12] = test system: upland rice (Oryza sp., var. Tebonnet, RICE); test: Pre-emerge test, crop safety; conditions: pre-emerge, 14 days after application, scale 0-100
Method in brief: (§3)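 Herbicidal damage is scored 0 (none) to 100 (complete plant death) two weeks after a simulated field spray. Rates span 15–1000 g ai/ha, delivered in acetone at 187 l/ha. For post-emergence treatments, plants have 2–3 leaves and the spray carries 0.25% v/v non-ionic surfactant.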

[13] = test system: field corn (Zea mays L., var. Dekalb 535, CORN); test: Pre-emerge test, crop safety; conditions: pre-emerge, 14 days after application, scale 0-100
Method in brief: as §3

[14] = test system: ivyleaf morningglory (Ipomoea hederacea, IPOHE); test: Pre-emerge test, greenhouse herbicide activity screening; conditions: pre-emerge, 14 days after application, scale 0-100
Method in brief: as §1

[15] = test system: sicklepod (Cassia obtusifolia, CASOB); test: as above; conditions: pre-emerge, 14 days after application, scale 0-100
Method in brief: as §1

[16] = test system: large crabgrass (Digitaria sanguinalis, DIGSA); test: as above; conditions: pre-emerge, 14 days after application, scale 0-100
Method in brief: as §1

[17] = test system: barnyardgrass (Echinochloa crus-galli, ECHCG); test: as above; conditions: pre-emerge, 14 days after application, scale 0-100
Method in brief: as §1

[18] = test system: green foxtail (Setaria viridis, SETVI); test: as above; conditions: pre-emerge, 14 days after application, scale 0-100
Method in brief: as §1

[19] = test system: johnsongrass (Sorghum halepense, SORHA); test: as above; conditions: pre-emerge, 14 days after application, scale 0-100
Method in brief: as §1

[20] = test system: velvetleaf (Abutilon theophrasti, ABUTH); test: as above; conditions: pre-emerge, 14 days after application, scale 0-100
Method in brief: as §1

[21] = test system: lambsquarters (Chenopodium album, CHEAL); test: as above; conditions: pre-emerge, 14 days after application, scale 0-100
Method in brief: as §1

[22] = test system: redroot pigweed (Amaranthus retroflexus, AMARE); test: as above; conditions: pre-emerge, 14 days after application, scale 0-100
Method in brief: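 Rating: 0–100 visual injury, 14 DAA. Application: acetone, 187 l/ha, 15–1000 g ai/ha, flat-fan track sprayer with nozzle 40–45 cm above soil or canopy. Post-emerge runs used 0.25% v/v surfactant on 2–3 leaf plants.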

## COc1c(Cl)cc(F)c(-n2c(=O)cc(C(F)(F)F)n(C)c2=O)c1NC(=O)C=Cc1cccc(Cl)c1 [2-134]
[1]; 63 g ai/ha
  RICE phytotoxicity rating (crop damage): 50
[1]; 250 g ai/ha
  RICE phytotoxicity rating (crop damage): 80
[2]; 63 g ai/ha
  CORN phytotoxicity rating (crop damage): 10
[2]; 250 g ai/ha
  CORN phytotoxicity rating (crop damage): 20
[3]; 63 g ai/ha
  IPOHE phytotoxicity rating: 100
[3]; 250 g ai/ha
  IPOHE phytotoxicity rating: 100
[4]; 63 g ai/ha
  CASOB phytotoxicity rating: 90
[4]; 250 g ai/ha
  CASOB phytotoxicity rating: 100
[5]; 63 g ai/ha
  AMARE phytotoxicity rating: 100
[5]; 250 g ai/ha
  AMARE phytotoxicity rating: 100
[6]; 63 g ai/ha
  DIGSA phytotoxicity rating: 0
[6]; 250 g ai/ha
  DIGSA phytotoxicity rating: 30
[7]; 63 g ai/ha
  ECHCG phytotoxicity rating: 10
[7]; 250 g ai/ha
  ECHCG phytotoxicity rating: 30
[8]; 63 g ai/ha
  SETVI phytotoxicity rating: 20
[8]; 250 g ai/ha
  SETVI phytotoxicity rating: 60
[9]; 63 g ai/ha
  SORHA phytotoxicity rating: 10
[9]; 250 g ai/ha
  SORHA phytotoxicity rating: 30
[10]; 63 g ai/ha
  ABUTH phytotoxicity rating: 100
[10]; 250 g ai/ha
  ABUTH phytotoxicity rating: 100
[11]; 63 g ai/ha
  CHEAL phytotoxicity rating: 100
[11]; 250 g ai/ha
  CHEAL phytotoxicity rating: 100
[12]; 63 g ai/ha
  phytotoxicity rating RICE (crop damage): 10
[12]; 250 g ai/ha
  phytotoxicity rating RICE (crop damage): 20
[13]; 63 g ai/ha
  phytotoxicity rating CORN (crop damage): 0
[13]; 250 g ai/ha
  phytotoxicity rating CORN (crop damage): 0
[14]; 63 g ai/ha
  phytotoxicity rating IPOHE: 20
[14]; 250 g ai/ha
  phytotoxicity rating IPOHE: 30
[15]; 63 g ai/ha
  phytotoxicity rating CASOB: 10
[15]; 250 g ai/ha
  phytotoxicity rating CASOB: 30
[16]; 63 g ai/ha
  phytotoxicity rating DIGSA: 20
[16]; 250 g ai/ha
  phytotoxicity rating DIGSA: 90
[17]; 63 g ai/ha
  phytotoxicity rating ECHCG: 0
[17]; 250 g ai/ha
  phytotoxicity rating ECHCG: 30
[18]; 63 g ai/ha
  phytotoxicity rating SETVI: 35
[18]; 250 g ai/ha
  phytotoxicity rating SETVI: 80
[19]; 63 g ai/ha
  phytotoxicity rating SORHA: 0
[19]; 250 g ai/ha
  phytotoxicity rating SORHA: 30
[20]; 63 g ai/ha
  phytotoxicity rating ABUTH: 60
[20]; 250 g ai/ha
  phytotoxicity rating ABUTH: 80
[21]; 63 g ai/ha
  phytotoxicity rating CHEAL: 100
[21]; 250 g ai/ha
  phytotoxicity rating CHEAL: 100
[22]; 63 g ai/ha
  phytotoxicity rating AMARE: 100
[22]; 250 g ai/ha
  phytotoxicity rating AMARE: 100
